Measurements taken from US20060292553A1, “Method for study of the genetic and functional variability of HIV and kit for using it” (Bioalliance Pharma, a corporation of France, priority 2004, published 2006).

Legend:
[1] = system: HIV-1 virus of the patient (protease and inverse transcriptase genes); test: Trugene genotyping, interpretation of resistances from the amplicon of patient plasma; conditions: M184V, T215Y, L63P
Excerpt: (§1) The procedure to generate the first specific amplicon is as follows: • 1) Viral RNA contained in a biological sample is extracted. The biological sample may be derived from a sample from the patient. It may be a blood or serum sample, but may also come from a biological fluid or a biopsy or any other tissue preparation. The biological sample may also come from a viral culture. In a general manner, a biological sample corresponds to all types of samples containing one or several HIV-1 variants. The term “HIV-1 virus” in this Example is used to mean any viral strain belonging to the sub-types B and non-B. • 2) The RNA obtained in (1) is retrotranscribed and amplified with one of the pairs of specific primers in Table 1 below to obtain an amplicon characterized by: […]
(§2) Tables 2 and 3 below show two examples of samples of plasma in patients 1 and 2, respectively, for which the amplicons generated by the method above have made it possible to implement the genotyping according to the Trugene and Viroseq techniques and phenotyping according to the Phenoscript technique.
The Trugene HIV-1 genotyping kit is used to determine the genotype of the virus of sub-types B and non-B. The RNA is extracted using plasma from patients, according to known techniques, the viral RNA is retrotranscribed and amplified using PCR with primers specific for the pol gene making possible amplification of a sequence of nucleic acids of 1300 pb comprising, for the protease, codons 1 to 99 and comprising, for the inverse transcriptase, codons 1 to 247. The product of RT-PCR thus obtained is used in each of the 16 sequencing reactions by using the principle of CLIP™ reaction, sequencing technique using labeled primers (dye primers). Four pairs of different primers are used for this sequencing method, two pairs for the sequencing of the protease and two other pairs for the sequencing of the inverse transcriptase. Each sequence reaction is initiated by a specific dye primer (CLIP™), then interrupted by the corresponding labeled nucleotide. All of the fragments synthesized are then separated on electrophoresis gel and analyzed by an automatic sequencer specifically indicating the fragments ending with each of the four labeled nucleotides. The sequences, once reconstituted, are compared to the sequence of a reference virus using an alignment software.
(§3) The measurement of genetic variability is carried out using a specific sequence of nucleic acids amplified according to aspects of the method, then analyzed according to known sequencing techniques (Trugene, ViroSeq). Mutations in the genes of the protease and of the inverse transcriptase identified by these tests are interpreted according to algorithms that are updated regularly. A first score of 0 to 2 is attributed to each of the three levels of resistance determined by the interpretation. Table 11 below summarizes the interpretations given by the Trugene and ViroSeq tests as a function of the mutations identified and of the anti-retroviruses (ARV) used and assigns a genotypical score corresponding to the magnitude of the resistance.

[2] = system: HIV-1 virus of the patient (protease and inverse transcriptase genes); test: ViroSeq genotyping, evidence of resistance from the amplicon of patient plasma; conditions: M184V, T215Y, L63P
Excerpt: as §1, §2
The RNA is extracted using plasmas from patients according to a known extraction technique based on the affinity of RNA with respect to silica columns, the viral RNA is retrotranscribed and amplified using PCR with primers specific to the pol gene making possible amplification of a sequence of nucleic acids of 1800 pb comprising, for the protease, codons 1 to 99 and comprising, for the inverse transcriptase, codons 1 to 335. The DNA thus obtained is then sequenced with seven different primers according to the Big Dye™ Terminator technology, a sequencing technique using dye terminators. The sequence reaction is initiated by each specific non-labeled primer, then interrupted by each of the labeled nucleotides. All of the fragments synthesized are then separated on electrophoresis gel. The color of the fluorochrome will then be registered using an automatic sequencer (ABI Prism 377 DNA sequencer), specifically indicating the fragments ending with each of the four labeled nucleotides. The sequences, once reconstituted, are compared to the sequence of a reference virus using an alignment software.
as §3

[3] = system: HIV-1 virus of the patient (recombinant virus); test: Phenoscript phenotyping, recombinant virus of the patient in the presence of drugs; type: cell-based
Excerpt: The principle of the phenotypical tests for resistance is based on the measurement in vitro of the growth of a virus in the patient in the presence of drugs.
Viral RNA derived from the plasma is extracted, then the regions coding for inverse transcriptase and/or protease are amplified using PCR in phenotypical tests. Amplicons are recombined in vitro in a defective vector to form a viral particle. This viral particle is placed in a culture in the presence of increasing concentrations of drugs. The results are expressed in a “fold change” ratio of IC 50 (or IC90) with respect to a control virus which corresponds to the concentration of the drug that inhibits 50% (or 90%) of the viral replication in comparison to the reference wild type virus. The resistance level is defined as a function of thresholds of sensitivity (cut off).
as §2
The principle of the tests of phenotypical resistance is based on the measurement in vitro of the growth of a virus in the patient in the presence of drug(s)/active agent(s), compared to a reference virus (resistance index). The level of resistance is defined as a function of thresholds of sensitivity (cut off). A second score of 0 to 2 is attributed to each of the three levels of resistance determined by the interpretation. Table 12 summarizes the interpretations given by the main phenotypical tests, PhenoSense and Phenoscript, as a function of their thresholds of sensitivity and assigns a phenotypical score corresponding to the magnitude of resistance.

[4] = Patient 1 plasma sample, mutations D67N, K70R, K219E, K103N, V108I, P225H
[5] = Patient 2 plasma sample, mutations M41L, L210W, M36L

Row | SMILES | Trugene Interpretation of resistances [1, 4] | Trugene Interpretation of resistances [1, 5] | Viroseq Evidence of resistance [2, 4] | Viroseq Evidence of resistance [2, 5] | Phenoscript Contribution to the therapeutic response ([3]; Patient 1 plasma sample) | Phenoscript Contribution to the therapeutic response ([3]; Patient 2 plasma sample)
1 | CC(C)c1nc(CN(C)C(=O)N[C@H](C(=O)N[C@@H](Cc2ccccc2)C[C@H](O)[C@H](Cc2ccccc2)NC(=O)OCc2cncs2)C(C)C)cs1 [RTV] | No resistance | No resistance | Zero | Zero | – | –
2 | CC(C)(C)NC(=O)[C@@H]1CN(Cc2cccnc2)CCN1C[C@@H](O)C[C@@H](Cc1ccccc1)C(=O)N[C@H]1c2ccccc2C[C@H]1O [IDV] | No resistance | No resistance | Zero | Zero | Probable | Probable
3 | Cc1ccnc2c1NC(=O)c1cccnc1N2C1CC1 [NVP] | Resistance | No resistance | High | Zero | Improbable | Probable
4 | O=c1[nH]cnc2c1ncn2[C@H]1CC[C@@H](CO)O1 [ddI] | Resistance | Resistance | Possible | Possible | Probable | Possible
5 | Cc1c(O)cccc1C(=O)N[C@@H](CSc1ccccc1)[C@H](O)CN1C[C@H]2CCCC[C@H]2C[C@H]1C(=O)NC(C)(C)C [NFV] | No resistance | No resistance | Zero | Possible | Probable | Probable
6 | Cc1cn([C@H]2C[C@H](N=[N+]=[N-])[C@@H](CO)O2)c(=O)[nH]c1=O [AZT] | Resistance | Resistance | High | High | Improbable | Improbable
7 | Cc1cn([C@H]2C=C[C@@H](CO)O2)c(=O)[nH]c1=O [d4T] | Resistance | Resistance | High | Possible | Probable | Probable
8 | Nc1ccn([C@@H]2CS[C@H](CO)O2)c(=O)n1 [3TC] | Resistance | Resistance | High | High | Improbable | Improbable
9 | CC(C)Nc1cccnc1N1CCN(C(=O)c2cc3cc(NS(C)(=O)=O)ccc3[nH]2)CC1 [DLV] | Resistance | No resistance | High | Zero | – | –
10 | CC(C)CN(C[C@@H](O)[C@H](Cc1ccccc1)NC(=O)O[C@H]1CCOC1)S(=O)(=O)c1ccc(N)cc1 [APV] | No resistance | No resistance | Zero | Zero | Probable | Probable
11 | CC(C)(C)NC(=O)[C@@H]1C[C@@H]2CCCC[C@@H]2CN1C[C@@H](O)[C@H](Cc1ccccc1)NC(=O)[C@H](CC(N)=O)NC(=O)c1ccc2ccccc2n1 [SQV] | No resistance | No resistance | Zero | Zero | Probable | Probable
12 | O=C1Nc2ccc(Cl)cc2[C@@](C#CC2CC2)(C(F)(F)F)O1 [EFV] | Resistance | No resistance | High | Zero | Improbable | Probable
13 | Nc1nc(NC2CC2)c2ncn([C@H]3C=C[C@@H](CO)C3)c2n1 [ABC] | No resistance | Resistance | Possible | Possible | Possible | Possible
14 | Nc1ccn([C@H]2CC[C@@H](CO)O2)c(=O)n1 [ddC] | – | – | High | High | – | –
15 | CC(C)OC(=O)OCOP(=O)(CO[C@H](C)Cn1cnc2c(N)ncnc21)OCOC(=O)OC(C)C.O=C(O)/C=C/C(=O)O [TDF] | No resistance | Resistance | – | – | – | –
